Measured values published in ChEMBL document CHEMBL1123524, “Aminoglycoside antibiotics. 6. Chemical reactions of aminoglycosides with disodium carbenicillin” (1986).

What was measured:
Escherichia coli [1] = assay: Antibacterial activity expressed as MIC value was determined on Escherichia coli A-20895 organism; format: functional
Escherichia coli [2] = assay: (§1) Antibacterial activity expressed as MIC value was determined on Escherichia coli A-22356 organism; format: functional
Pseudomonas aeruginosa [3] = assay: Antibacterial activity expressed as MIC value was determined on Pseudomonas aeruginosa A-20601 organism; format: functional
Staphylococcus aureus [4] = assay: Antibacterial activity expressed as MIC value was determined on Staphylococcus aureus A-22058 organism; format: functional
Providencia stuartii [5] = assay: Antibacterial activity expressed as MIC value was determined on Proteus stuartii A-21210 organism; format: functional
Escherichia coli [6] = assay: Antibacterial activity expressed as MIC value was determined on Escherichia coli A-9632 organism; format: functional
Enterobacter cloacae [7] = assay: Antibacterial activity expressed as MIC value was determined on Enterobacter cloacae A-20364 organism; format: functional
Enterobacter cloacae [8] = assay: Antibacterial activity expressed as MIC value was determined on Enterobacter cloacae A-21006 organism; format: functional
Pseudomonas aeruginosa [9] = assay: Antibacterial activity expressed as MIC value was determined on Pseudomonas aeruginosa A-21508 organism; format: functional
Enterobacter cloacae [10] = assay: Antibacterial activity expressed as MIC value was determined on Enterobacter cloacae A-21136 organism; format: functional
Pseudomonas aeruginosa [11] = assay: Antibacterial activity expressed as MIC value was determined on Pseudomonas aeruginosa A-20653 organism; format: functional
Escherichia coli [12] = assay: Antibacterial activity expressed as MIC value was determined on Escherichia coli A-22045 organism; format: functional
Providencia rettgeri [13] = assay: Antibacterial activity expressed as MIC value was determined on Proteus rettgeri A-21207 organism; format: functional
Proteus mirabilis = assay: Antibacterial activity expressed as MIC value was determined on Proteus mirabilis A-9900 organism; format: functional
Staphylococcus aureus [14] = assay: Antibacterial activity expressed as MIC value was determined on Staphylococcus aureus A-22231 organism; format: functional
Staphylococcus aureus [15] = assay: Antibacterial activity expressed as MIC value was determined on Staphylococcus aureus A-20240 organism; format: functional
Pseudomonas aeruginosa [16] = assay: Antibacterial activity expressed as MIC value was determined on Pseudomonas aeruginosa A-21509 organism; format: functional
Klebsiella pneumoniae = assay: Antibacterial activity expressed as MIC value was determined on Klebsiella pneumonia A-20468 organism; format: functional
Staphylococcus aureus [17] = assay: Antibacterial activity expressed as MIC value was determined on Staphylococcus aureus A-22210 organism; format: functional
Enterobacter cloacae [18] = assay: Antibacterial activity expressed as MIC value was determined on Enterobacter cloacae A-9656 organism; format: functional
Providencia stuartii [19] = assay: Antibacterial activity expressed as MIC value was determined on Proteus stuartii A-20894 organism; format: functional
Escherichia coli [20] = assay: Antibacterial activity expressed as MIC value was determined on Escherichia coli A-20665 organism; format: functional
Pseudomonas aeruginosa [21] = assay: Antibacterial activity expressed as MIC value was determined on Pseudomonas aeruginosa A-9834A organism; format: functional
Staphylococcus aureus [22] = assay: Antibacterial activity expressed as MIC value was determined on Staphylococcus aureus A-9537 organism; format: functional
Escherichia coli [23] = assay: Antibacterial activity expressed as MIC value was determined on Escherichia coli A-20683 organism; format: functional
Pseudomonas aeruginosa [24] = assay: Antibacterial activity expressed as MIC value was determined on Pseudomonas aeruginosa A-20741 organism; format: functional
Providencia rettgeri [25] = assay: (§2) Antibacterial activity expressed as MIC value was determined on Proteus rettgeri A-9637 organism; format: functional
Escherichia coli [26] = assay: Antibacterial activity expressed as MIC value was determined on Escherichia coli A-20697 organism; format: functional
Pseudomonas aeruginosa [27] = assay: Antibacterial activity expressed as MIC value was determined on Pseudomonas aeruginosa A-21294 organism; format: functional
Pseudomonas aeruginosa [28] = assay: Antibacterial activity expressed as MIC value was determined on Pseudomonas aeruginosa A-22233 organism; format: functional
Pseudomonas aeruginosa [29] = assay: Antibacterial activity expressed as MIC value was determined on Pseudomonas aeruginosa A-20897 organism; format: functional
Serratia marcescens = assay: Antibacterial activity expressed as MIC value was determined on Serratia marcescens A-20019 organism; format: functional
Escherichia coli [30] = assay: Antibacterial activity expressed as MIC value was determined on Escherichia coli A-21218 organism; format: functional
Staphylococcus aureus [31] = assay: Antibacterial activity expressed as MIC value was determined on Staphylococcus aureus A-21978 organism; format: functional
Pseudomonas aeruginosa [32] = assay: Antibacterial activity expressed as MIC value was determined on Pseudomonas aeruginosa A-20717 organism; format: functional
Escherichia coli [33] = assay: Antibacterial activity expressed as MIC value was determined on Escherichia coli A-20732 organism; format: functional
Providencia rettgeri [34] = assay: as §2; format: functional; remark: listed apart in the source
Escherichia coli [35] = assay: as §1; format: functional; remark: listed apart in the source
Staphylococcus aureus [36] = assay: Antibacterial activity expressed as MIC value was determined on Staphylococcus aureusA-22058 organism; format: functional, organism-based

## CC1(C)S[C@@H]2[C@H](NC(=O)C(C(=O)O)c3ccccc3)C(=O)N2[C@H]1C(=O)O.NC[C@H]1O[C@H](O[C@H]2[C@H](O)[C@@H](O[C@H]3O[C@H](CO)[C@@H](O)[C@H](N)[C@H]3O)[C@H](N)C[C@@H]2N)[C@H](N)C[C@@H]1O
Escherichia coli [1]
  MIC: > 250 µg/mL
Escherichia coli [2]
  MIC: > 250 µg/mL
Pseudomonas aeruginosa [3]
  MIC: > 250 µg/mL
Staphylococcus aureus [4]
  MIC: > 250 µg/mL
Providencia stuartii [5]
  MIC: > 250 µg/mL
Escherichia coli [6]
  MIC: > 250 µg/mL
Enterobacter cloacae [7]
  MIC: > 250 µg/mL
Enterobacter cloacae [8]
  MIC: > 250 µg/mL
Pseudomonas aeruginosa [9]
  MIC: 250 µg/mL
Enterobacter cloacae [10]
  MIC: > 250 µg/mL
Pseudomonas aeruginosa [11]
  MIC: 250 µg/mL
Escherichia coli [12]
  MIC: > 250 µg/mL
Providencia rettgeri [13]
  MIC: > 250 µg/mL
Proteus mirabilis
  MIC: > 250 µg/mL
Staphylococcus aureus [14]
  MIC: 63 µg/mL
Staphylococcus aureus [15]
  MIC: > 250 µg/mL
Pseudomonas aeruginosa [16]
  MIC: > 250 µg/mL
Klebsiella pneumoniae
  MIC: > 250 µg/mL
Staphylococcus aureus [17]
  MIC: > 250 µg/mL
Enterobacter cloacae [18]
  MIC: > 250 µg/mL
Providencia stuartii [19]
  MIC: > 250 µg/mL
Escherichia coli [20]
  MIC: > 250 µg/mL
Pseudomonas aeruginosa [21]
  MIC: 250 µg/mL
Staphylococcus aureus [22]
  MIC: 63 µg/mL
Escherichia coli [23]
  MIC: > 250 µg/mL
Pseudomonas aeruginosa [24]
  MIC: > 250 µg/mL
Providencia rettgeri [25]
  MIC: 125 µg/mL
Escherichia coli [26]
  MIC: > 250 µg/mL
Pseudomonas aeruginosa [27]
  MIC: > 250 µg/mL
Pseudomonas aeruginosa [28]
  MIC: > 250 µg/mL
Pseudomonas aeruginosa [29]
  MIC: > 250 µg/mL
Serratia marcescens
  MIC: 250 µg/mL
Escherichia coli [30]
  MIC: > 250 µg/mL
Staphylococcus aureus [31]
  MIC: > 250 µg/mL
Pseudomonas aeruginosa [32]
  MIC: > 250 µg/mL
Escherichia coli [33]
  MIC: > 250 µg/mL

## CC1(C)S[C@@H]2[C@H](NC(=O)C(C(=O)O)c3ccccc3)C(=O)N2[C@H]1C(=O)O.NC[C@H]1O[C@H](O[C@H]2[C@H](O)[C@@H](O[C@H]3O[C@H](CO)[C@@H](O)[C@H](N)[C@H]3O)[C@H](N)C[C@@H]2N)[C@H](O)[C@@H](O)[C@@H]1O
Escherichia coli [1]
  MIC: > 250 µg/mL
Escherichia coli [2]
  MIC: > 250 µg/mL
Pseudomonas aeruginosa [3]
  MIC: > 250 µg/mL
Staphylococcus aureus [4]
  MIC: > 250 µg/mL
Providencia stuartii [5]
  MIC: > 250 µg/mL
Escherichia coli [6]
  MIC: > 250 µg/mL
Enterobacter cloacae [7]
  MIC: > 250 µg/mL
Enterobacter cloacae [8]
  MIC: > 250 µg/mL
Pseudomonas aeruginosa [9]
  MIC: > 250 µg/mL
Enterobacter cloacae [10]
  MIC: > 250 µg/mL
Pseudomonas aeruginosa [11]
  MIC: > 250 µg/mL
Escherichia coli [12]
  MIC: > 250 µg/mL
Providencia rettgeri [13]
  MIC: > 250 µg/mL
Proteus mirabilis
  MIC: > 250 µg/mL
Staphylococcus aureus [14]
  MIC: > 250 µg/mL
Staphylococcus aureus [15]
  MIC: > 250 µg/mL
Pseudomonas aeruginosa [16]
  MIC: > 250 µg/mL
Klebsiella pneumoniae
  MIC: > 250 µg/mL
Staphylococcus aureus [17]
  MIC: > 250 µg/mL
Enterobacter cloacae [18]
  MIC: > 250 µg/mL
Providencia stuartii [19]
  MIC: > 250 µg/mL
Escherichia coli [20]
  MIC: > 250 µg/mL
Pseudomonas aeruginosa [21]
  MIC: > 250 µg/mL
Staphylococcus aureus [22]
  MIC: > 250 µg/mL
Escherichia coli [23]
  MIC: > 250 µg/mL
Pseudomonas aeruginosa [24]
  MIC: > 250 µg/mL
Providencia rettgeri [25]
  MIC: 250 µg/mL
Escherichia coli [26]
  MIC: > 250 µg/mL
Pseudomonas aeruginosa [27]
  MIC: > 250 µg/mL
Pseudomonas aeruginosa [28]
  MIC: > 250 µg/mL
Pseudomonas aeruginosa [29]
  MIC: > 250 µg/mL
Serratia marcescens
  MIC: > 250 µg/mL
Escherichia coli [30]
  MIC: > 250 µg/mL
Staphylococcus aureus [31]
  MIC: > 250 µg/mL
Pseudomonas aeruginosa [32]
  MIC: > 250 µg/mL
Escherichia coli [33]
  MIC: > 250 µg/mL

## 2-{4,6-Diamino-3-[3-amino-6-(1-amino-ethyl)-tetrahydro-pyran-2-yloxy]-2-hydroxy-cyclohexyloxy}-5-methyl-4-methylamino-tetrahydro-pyran-3,5-diol; compound with 6-(2-carboxy-2-phenyl-acetylamino)-3,3-dimethyl-7-oxo-4-thia-1-aza-bicyclo[3.2.0]heptane-2-carbo
Escherichia coli [1]
  MIC: > 250 µg/mL
Pseudomonas aeruginosa [3]
  MIC: > 250 µg/mL
Providencia stuartii [5]
  MIC: > 250 µg/mL
Escherichia coli [6]
  MIC: 250 µg/mL
Enterobacter cloacae [7]
  MIC: 250 µg/mL
Enterobacter cloacae [8]
  MIC: 250 µg/mL
Pseudomonas aeruginosa [9]
  MIC: > 250 µg/mL
Enterobacter cloacae [10]
  MIC: > 250 µg/mL
Pseudomonas aeruginosa [11]
  MIC: > 250 µg/mL
Escherichia coli [12]
  MIC: > 250 µg/mL
Providencia rettgeri [13]
  MIC: > 250 µg/mL
Proteus mirabilis
  MIC: 250 µg/mL
Providencia rettgeri [34]
  MIC: 32 µg/mL
Staphylococcus aureus [14]
  MIC: 16 µg/mL
Staphylococcus aureus [15]
  MIC: > 250 µg/mL
Pseudomonas aeruginosa [16]
  MIC: > 250 µg/mL
Klebsiella pneumoniae
  MIC: 125 µg/mL
Staphylococcus aureus [17]
  MIC: > 250 µg/mL
Enterobacter cloacae [18]
  MIC: > 250 µg/mL
Providencia stuartii [19]
  MIC: > 250 µg/mL
Escherichia coli [20]
  MIC: > 250 µg/mL
Escherichia coli [35]
  MIC: 250 µg/mL
Pseudomonas aeruginosa [21]
  MIC: > 250 µg/mL
Staphylococcus aureus [22]
  MIC: 16 µg/mL
Escherichia coli [23]
  MIC: > 250 µg/mL
Pseudomonas aeruginosa [24]
  MIC: > 250 µg/mL
Escherichia coli [26]
  MIC: 250 µg/mL
Staphylococcus aureus [36]
  MIC: 32 µg/mL
Pseudomonas aeruginosa [27]
  MIC: > 250 µg/mL
Pseudomonas aeruginosa [28]
  MIC: > 250 µg/mL
Pseudomonas aeruginosa [29]
  MIC: > 250 µg/mL
Serratia marcescens
  MIC: > 250 µg/mL
Escherichia coli [30]
  MIC: 250 µg/mL
Staphylococcus aureus [31]
  MIC: > 250 µg/mL
Pseudomonas aeruginosa [32]
  MIC: > 250 µg/mL
Escherichia coli [33]
  MIC: > 250 µg/mL
